Assay results taken from patent publication US9877981B2, “NAD biosynthesis and precursors for the treatment and prevention of cancer and proliferation” (President and Fellows of Harvard College, priority 2012, dated 2018).

How the values were obtained:
[1] = system: C2C12 myoblasts; assay: mtDNA content and ETC gene expression in C2C12 myoblasts; assay type: cell-based, mouse; conditions: C2C12 myoblasts treated with DMOG, 16 h
Protocol: C2C12 cell line (ATCC) was cultured in low glucose Dulbecco's modified eagle medium (DMEM) (Invitrogen) supplemented with 10% FBS (Invitrogen) and a mix of antibiotic and antimycotic (Invitrogen). To inhibit SIRT1, cells were treated the vehicle (0.001% DMSO) or 10 μM EX-527 (Tocris) for 12 h. C2C12 myoblasts were infected with an empty or SIRT1 adenovirus as described before (Gerhart-Hines et al., 2007) and the media was replaced with fresh DMEM for additional 48 h, after that the cells were treated as described before. To test the effects of hypoxia and HIFα stabilization in genome asyncrony, C2C12 myoblasts were exposed to 1% oxygen for 16 h or treated with the vehicle (0.001% DMSO) or DMOG (Cayman) for the same period of time.
RNA from skeletal muscle tissue and C2C12 cells were extracted with RNeasy mini kit (Qiagen) according to the instructions and quantified using the NanoDrop 1000 spectrophotometer (Thermo Scientific). cDNA was synthesized with the iSCRIP cDNA synthesis kit (BioRad) using 600 ng of RNA. Quantitative RT-PCR reactions were performed using 1 μM of primers and LightCycler® 480 SYBR Green Master (Roche) on an LightCycler® 480 detection system (Roche). Calculations were performed by a comparative method (2-ΔCT) using 18S as an internal control. For mtDNA analysis, total DNA was extracted with DNeasy blood and tissue kit (Qiagen). mtDNA was amplified using primers specific for the mitochondrial cytochrome c oxidase subunit 2 (COX2) gene and normalized to genomic DNA by amplification of the ribosomal protein s18 (rps18) nuclear gene. Primers were designed using the IDT software (IDT) and the primer sequences can be found in Table 1.

[2] = system: HIF-1α; assay: Immunoblot of HIF-1α in PGC-1α/β KO myotubes; assay type: cell-based, mouse; conditions: PGC-1α/β knockout myotubes treated with DMOG
Protocol: Primary myoblasts cells were isolated from WT, SIRT1 KO (Price et al., 2012) and PGC-1α/β KO (Zechner et al., 2010) mice as previously described (Price et al., 2012). WT and PGC-1α/β KO primary myoblasts were plated and allowed to differentiate into myotubes by replacing the media with low glucose DMEM supplemented with 2% horse serum (Sigma-Aldrich) for 4 days. After the differentiation the cells were infected with empty vector or flag-SIRT1 adenovirus as described before (Gerhart-Hines et al., 2007). Media was replaced with fresh DMEM supplemented with 2% horse serum (Sigma-Aldrich) for an additional 48 hr and, after that the cells were harvested for the different assays as described. […]
(§1) Protein extracts from tissue or C2C12 cells were obtained by lysis in ice-cold lysis buffer (150 mM NaCl, 10 mM Tris HCl (pH 7.4), 1 mM EDTA, 1 mM EGTA, 1% Triton X-100, 0.5% NP-40) supplemented with a cocktail of protease and phosphatase inhibitors (Roche). Protein content was determined by the Bradford protein assay (Biorad), and 50 μg proteins were run on SDS-PAGE under reducing conditions. […] The immunostaining was detected using horseradish peroxidase-conjugated anti-rabbit or anti-mouse immunoglobulin for 1 h at room temperature.

[3] = system: TFAM promoter; assay: TFAM promoter activity by luciferase assay in primary WT myoblasts; assay type: cell-based, mouse; conditions: DMOG vs DMSO
Protocol: TFAM promoter, VHL promoter, HRE and c-Myc activity were determined using a luciferase-based system. Luciferase activity was measured using the Dual-Luciferase Reporter Assay System (Promega) with Renilla as the reference.
TFAM promoter activity was evaluated using a TFAM promotes-luc plasmid. A fragment of the mouse Tfam promoter (1.4 kb upstream of the coding sequence) was cloned into a pGL4.15 vector (Promega). Luciferase activity was measured using the Dual-Luciferase Reporter Assay System (Promega) with Renilla as the reference 48 h after transfection.

[4] = system: inflammatory markers (TNF-α, IL-6 and IL-18); assay: qPCR of inflammatory markers in gastrocnemius of treated mice; assay type: in vivo; conditions: old (22-month) mice; NMN one week; skeletal muscle
Text: (§2) C57BL/6J mice of 6, 22, or 30 months of age were obtained from the National Institutes of Aging mouse aging colony. Additionally 22 months old caloric restricted mice were also obtained from the National Institutes of Aging mouse aging colony. EGLN1 KO, SIRT1 KO and SIRT1 OE mice were generated as previously described (Minamishima et al., 2008; Price et al., 2012). Mice were acclimated for at least one-week prior to sacrifice. 3, 6, 22 and 24-month-old mice were given interperitoneal (IP) injections of 500 mg NMN/kg body weight per day or the equivalent volume of PBS for 7 consecutive days at 5:00 pm and 7:00 am on day 8 and sacrificed 4 hr after last injection.
RNA from skeletal muscle tissue and C2C12 cells were extracted with RNeasy mini kit (Qiagen) according to the instructions and quantified using the NanoDrop 1000 spectrophotometer (Thermo Scientific). cDNA was synthesized with the iSCRIP cDNA synthesis kit (BioRad) using 600 ng of RNA. Quantitative RT-PCR reactions were performed using 1 μM of primers and LightCycler® 480 SYBR Green Master (Roche) on an LightCycler® 480 detection system (Roche). Calculations were performed by a comparative method (2-ΔCT) using 18S as an internal control. […]

[5] = system: Atrogin-1 and MuRF1; assay: Immunoblot for muscle wasting markers in gastrocnemius of treated mice; assay type: in vivo; conditions: old (22-month) mice; NMN one week; skeletal muscle
Text: as §2
as §1, with “conditions. The separated proteins were then electrophoretically transferred to a polyvinylidene difluoride membrane (Perkin-Elmer).” for “conditions.”

[6] = system: lactate; assay: Lactate levels in skeletal muscle of treated mice; assay type: in vivo; conditions: 6- and 22-month-old mice; NMN one week
Text: as §2
C57BL/6J mice of 3, 6, 22, or 24 months of age were obtained from the National Institutes of Aging mouse aging colony. Additionally 22 months old caloric restricted mice were also obtained from the National Institutes of Aging mouse aging colony. Mice were acclimated for at least one-week prior to sacrifice. 3, 6, 22 and 24-month-old mice were given interperitoneal (IP) injections of 500 mg NMN/kg body weight per day or the equivalent volume of PBS for 7 consecutive days at 5:00 pm and 7:00 am on day 8 and sacrificed 4 hr after last injection. […]
Lactate from skeletal muscle was quantified with a commercially available kit (BioVision) according to the manufacturer's instructions.

Row | Compound | expression of mitochondrially-encoded ETC genes [1] | expression of nuclear-encoded ETC components [1] | mtDNA content [1] | HIF-1α protein [2] | full length TFAM promoter activity [3] | TFAM promoter activity with c-Myc consensus sequence mutation ([3]; c-Myc binding site absent) | expression of inflammation markers [4] | muscle wasting markers Atrogin-1 and MuRF1 [5] | lactate levels in the skeletal muscle [6]
1 | COC(=O)CNC(=O)C(=O)OC [DMOG, dimethyloxaloylglycine] | specific decline | not the nuclear-encoded components | specific decline in mtDNA content | stabilizes HIF-1α protein | reduces the full length TFAM promoter activity | does not have an additive effect |  |  | 
2 | NC(=O)c1ccc[n+]([C@@H]2O[C@H](COP(=O)([O-])O)[C@@H](O)[C@H]2O)c1 [NMN, nicotinamide mononucleotide] |  |  |  |  |  |  | completely reversed these markers | completely reversed these markers | suppressed the increase in lactate levels
